The source of these data is patent US11479539B2, “Small molecule modulators of the BTB domain of Keap1” (MedImmune Limited, priority 2017, dated 2022).

Structures are written as SMILES. pEC50: −log10 of the molar value.

In this assay the target is Keap1 (Homo sapiens (Human), UniProt Q14145). The assay is described as follows: HEK293 ARE luciferase assay. Format: cell-based. Particulars: HEK-293 ARE firefly luciferase transiently transfected cells; 18 h incubation; mean of 1 to 20 individual measurements. The essentials: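 Keap1 inhibition read as Nrf2-driven luciferase rise: compounds dosed in 10 points up to 100 μM (0.3% DMSO) on HEK-293 ARE luciferase cells, 10,000/well, 18 h at 37 °C, then SteadyGlo luminescence. Scaled between DMSO vehicle and 30 μM tBHQ; values average 1-20 runs.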
Sequence of Keap1 (Q14145 whole entry): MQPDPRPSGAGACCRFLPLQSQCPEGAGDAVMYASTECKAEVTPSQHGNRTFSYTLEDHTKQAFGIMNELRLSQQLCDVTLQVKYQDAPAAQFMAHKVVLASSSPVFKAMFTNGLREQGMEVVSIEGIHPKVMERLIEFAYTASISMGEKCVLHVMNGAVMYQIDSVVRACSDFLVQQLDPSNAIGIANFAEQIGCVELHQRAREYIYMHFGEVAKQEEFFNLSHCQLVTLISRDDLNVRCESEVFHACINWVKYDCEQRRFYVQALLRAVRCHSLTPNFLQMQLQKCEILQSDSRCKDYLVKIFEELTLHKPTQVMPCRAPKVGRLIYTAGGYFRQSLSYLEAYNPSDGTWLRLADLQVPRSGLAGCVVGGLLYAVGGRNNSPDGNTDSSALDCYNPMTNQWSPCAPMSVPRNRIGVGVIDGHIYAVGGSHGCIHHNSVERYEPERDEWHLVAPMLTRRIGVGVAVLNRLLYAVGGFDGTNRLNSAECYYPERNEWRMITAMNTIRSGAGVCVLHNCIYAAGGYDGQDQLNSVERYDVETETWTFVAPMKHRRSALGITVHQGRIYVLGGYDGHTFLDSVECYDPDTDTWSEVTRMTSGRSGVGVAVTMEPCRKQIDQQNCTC
For orientation: pEC50 means −log10 of the EC50, conventionally taken in molar units. Low readings indicate a large EC50, high ones a small EC50. Regarding `COC1(c2ncc(F)cc2-c2ccc3ncnn3c2)C=C(C#N)C(=O)C(C)(C)C1` (single isomer, unassigned) [Compound 212, 3-[5-fluoro-3-([1,2,4]triazolo[1,5-a]pyridin-6-yl)pyridin-2-yl]-3-methoxy-5,5-dimethyl-6-oxocyclohex-1-ene-1-carbonitrile], the pEC50 was 8.15.

Regarding `COC1(c2ncc(F)cc2-c2cncc(C(F)(F)F)c2)C=C(C#N)C(=O)C(C)(C)C1` (single isomer, unassigned) [Compound 215, 3-[5-fluoro-5′-(trifluoromethyl)[3,3′-bipyridin]-2-yl]-3-methoxy-5,5-dimethyl-6-oxocyclohex-1-ene-1-carbonitrile], the pEC50 is 7.82.

Take `COC1(c2ncc(F)cn2)C=C(C#N)C(=O)C(C)(C)C1` (single isomer, unassigned) [Compound 216, 3-(5-fluoropyrimidin-2-yl)-3-methoxy-5,5-dimethyl-6-oxocyclohex-1-ene-1-carbonitrile]: the pEC50 was 7.68. To `COC1(c2ncc(F)cc2-c2cnccc2C#N)C=C(C#N)C(=O)C(C)(C)C1` (single isomer, unassigned) [Compound 217, 2′-[3-cyano-1-methoxy-5,5-dimethyl-4-oxocyclohex-2-en-1-yl]-5′-fluoro[3,3′-bipyridine]-4-carbonitrile] belongs 7.92.

With `COc1cc(-c2cc(F)cnc2C2(OC)C=C(C#N)C(=O)C(C)(C)C2)c(Cl)cn1` (single isomer, unassigned) [Compound 218, 3-(5′-chloro-5-fluoro-2′-methoxy[3,4′-bipyridin]-2-yl)-3-methoxy-5,5-dimethyl-6-oxocyclohex-1-ene-1-carbonitrile], the pEC50 was 7.64. `COC1(c2ncc(F)cc2-c2cnn3ccccc23)C=C(C#N)C(=O)C(C)(C)C1` (single isomer, unassigned) [Compound 219, 3-[5-fluoro-3-(pyrazolo[1,5-a]pyridin-3-yl)pyridin-2-yl]-3-methoxy-5,5-dimethyl-6-oxocyclohex-1-ene-1-carbonitrile] showed a pEC50 of 8.30.

Consider `COC1(c2ncc(F)cc2-c2ccnnc2)C=C(C#N)C(=O)C(C)(C)C1` (single isomer, unassigned) [Compound 220, 3-[5-fluoro-3-(pyridazin-4-yl)pyridin-2-yl]-3-methoxy-5,5-dimethyl-6-oxocyclohex-1-ene-1-carbonitrile], for which the pEC50 is 8.00. `COC1(c2ncc(F)cc2-c2cncc(S(=O)(=O)C(C)C)c2)C=C(C#N)C(=O)C(C)(C)C1` (single isomer, unassigned) [Compound 221, 3-{5-fluoro-5′-[(propan-2-yl)sulfonyl][3,3′-bipyridin]-2-yl}-3-methoxy-5,5-dimethyl-6-oxocyclohex-1-ene-1-carbonitrile] gave a pEC50 of 8.10. To `COC1(c2ncc(F)cc2-c2cncc(C(C)(C)C#N)c2)C=C(C#N)C(=O)C(C)(C)C1` (single isomer, unassigned) [Compound 222, 3-[5′-(2-cyanopropan-2-yl)-5-fluoro[3,3′-bipyridin]-2-yl]-3-methoxy-5,5-dimethyl-6-oxocyclohex-1-ene-1-carbonitrile] belongs 8.22; to `COC1(c2ncc(F)cc2-c2cncc(OC(F)F)c2)C=C(C#N)C(=O)C(C)(C)C1` (single isomer, unassigned) [Compound 223, 3-[5′-(difluoromethoxy)-5-fluoro[3,3′-bipyridin]-2-yl]-3-methoxy-5,5-dimethyl-6-oxocyclohex-1-ene-1-carbonitrile], 7.85; to `COC1(c2ncc(F)cc2Cl)C=C(C#N)C(=O)C(C)(C)C1` (single isomer, unassigned) [Compound 224, 3-(3-chloro-5-fluoropyridin-2-yl)-3-methoxy-5,5-dimethyl-6-oxocyclohex-1-ene-1-carbonitrile], 7.85. To `COC1(c2ncc(Cl)cc2Cl)C=C(C#N)C(=O)C(C)(C)C1` (single isomer, unassigned) [Compound 225, 3-(3,5-dichloropyridin-2-yl)-3-methoxy-5,5-dimethyl-6-oxocyclohex-1-ene-1-carbonitrile] belongs 7.92; to `COC1(c2ncc(F)cc2-c2ccc3nccn3c2)C=C(C#N)C(=O)C(C)(C)C1` (single isomer, unassigned) [Compound 226, 3-[5-fluoro-3-(imidazo[1,2-a]pyridin-6-yl)pyridin-2-yl]-3-methoxy-5,5-dimethyl-6-oxocyclohex-1-ene-1-carbonitrile], 7.89.

Compound `COC1(c2ncc(F)cc2-c2cncc(C(=O)N(C)C)c2)C=C(C#N)C(=O)C(C)(C)C1` (single isomer, unassigned) [Compound 227, 2′-(3-cyano-1-methoxy-5,5-dimethyl-4-oxocyclohex-2-en-1-yl)-5′-fluoro-N,N-dimethyl[3,3′-bipyridine]-5-carboxamide] showed a pEC50 of 7.82.

Turning to `COC1(c2ncc(F)cc2-c2cnn(CC(F)(F)F)c2)C=C(C#N)C(=O)C(C)(C)C1` (single isomer, unassigned) [Compound 228, 3-{5-fluoro-3-[1-(2,2,2-trifluoroethyl)-1H-pyrazol-4-yl]pyridin-2-yl}-3-methoxy-5,5-dimethyl-6-oxocyclohex-1-ene-1-carbonitrile], the pEC50 was 7.82. In the case of `COC1(c2ncc(F)cc2-c2ccn3nc(C)nc3c2)C=C(C#N)C(=O)C(C)(C)C1` (single isomer, unassigned) [Compound 229, 3-[5-fluoro-3-(2-methyl[1,2,4]triazolo[1,5-a]pyridin-7-yl)pyridin-2-yl]-3-methoxy-5,5-dimethyl-6-oxocyclohex-1-ene-1-carbonitrile], the pEC50 is 8.00.

In turn, `COC1(c2ncc(F)cc2-c2cnc(C)c(F)c2)C=C(C#N)C(=O)C(C)(C)C1` (single isomer, unassigned) [Compound 230, 3-(5,5′-difluoro-6′-methyl[3,3′-bipyridin]-2-yl)-3-methoxy-5,5-dimethyl-6-oxocyclohex-1-ene-1-carbonitrile] showed a pEC50 of 7.80.

In turn, `COC1(c2ncc(F)cc2-c2cnn3c2CCC3)C=C(C#N)C(=O)C(C)(C)C1` (single isomer, unassigned) [Compound 231, 3-[3-(5,6-dihydro-4H-pyrrolo[1,2-v]pyrazol-3-yl)-5-fluoropyridin-2-yl]-3-methoxy-5,5-dimethyl-6-oxocyclohex-1-ene-1-carbonitrile] gave a pEC50 of 7.80.

With `COC1(c2ncc(F)cc2-c2cncc(C3CC3)c2)C=C(C#N)C(=O)C(C)(C)C1` (single isomer, unassigned) [Compound 232, 3-(5′-cyclopropyl-5-fluoro[3,3′-bipyridin]-2-yl)-3-methoxy-5,5-dimethyl-6-oxocyclohex-1-ene-1-carbonitrile], the pEC50 was 7.64. For `CCc1cncc(-c2cc(F)cnc2C2(OC)C=C(C#N)C(=O)C(C)(C)C2)c1` (single isomer, unassigned) [Compound 233, 3-(5′-ethyl-5-fluoro[3,3′-bipyridin]-2-yl)-3-methoxy-5,5-dimethyl-6-oxocyclohex-1-ene-1-carbonitrile], the pEC50 is 8.22.

The compound `COc1ncc(C)cc1-c1cc(F)cnc1C1(OC)C=C(C#N)C(=O)C(C)(C)C1` (single isomer, unassigned) [Compound 234, 3-(5-fluoro-2′-methoxy-5′-methyl[3,3′-bipyridin]-2-yl)-3-methoxy-5,5-dimethyl-6-oxocyclohex-1-ene-1-carbonitrile] had a pEC50 of 8.05.
